This note sets out measurements from patent publication US9446105B2, “Chimeric antigen receptor specific for folate receptor β” (THE TRUSTEES OF THE UNIVERSITY OF PENNSYLVANIA, priority 2013, dated 2016).

Experiment [1] has as its system ATRA-treated THP1. The experiment in a line: CAR T cell recognition of ATRA-treated AML cell lines (cytokine release). The settings on record: 10 nM ATRA. The format is cell-based, human. As for the experimental part: These assays were performed by co-culture of 10^5 CAR+ T cells with 10^5 target cells per well (or media alone) in triplicate in 96-well plates in a 200 μL volume of complete media. After ˜24 hours, plates were centrifuged at 1200 RPM to pellet the cells, and co-culture supernatants were removed and assayed for the presence of IFN-γ by ELISA (Biolegend). Values represent the mean of triplicate wells. IL-2, IL-4, IL-10, IFN-γ, and TNF-α cytokines were measured by flow cytometry with Cytometric Bead Array (BD Biosciences). The cell pellets were then labeled with antibodies for CD3 and CD69, and assessed by flow cytometry. Live, CD3+ gates were used for analysis of CD69 upregulation. For m909 CAR T cells, GFP was used as a marker for CAR+ cells. In some cases cell pellets were labeled for FRβ surface expression following co-cultures.
AML cell lines were plated on d0 at 2.5×10^5 per mL in complete media with final concentration 10 nM ATRA. […] On d5 viable AML cells were washed and counted with trypan blue exclusion. Cells were then stained for FRβ surface expression and analyzed by flow cytometry, processed for RNA extraction, or used in co-cultures for functional assays.
Cell lines and CAR+ T cells were prepared as above (for cytokine release assays). […] Culture supernatants were then collected and analyzed for cytokines as described.

Experiment [2] deals with FRβ expression on human AML cell lines. The experiment in a line: ATRA treatment of AML cell lines, FRβ surface expression by flow cytometry. The note with it: 10 nM ATRA. In kind it is cell-based. As for the experimental part: AML cell lines were plated on d0 at 2.5×10^5 per mL in complete media with final concentration 10 nM ATRA. On d3 fresh media with 10 nM ATRA was added to keep cells at 2.5×10^5 per mL. On d5 viable AML cells were washed and counted with trypan blue exclusion. Cells were then stained for FRβ surface expression and analyzed by flow cytometry, processed for RNA extraction, or used in co-cultures for functional assays.
Tumor cell surface expression of FRβ was detected by m909-IgG antibody (Dimiter Dimitrov) conjugated to biotin (EZ-Link Biotinylation Kit, Thermo). To block Fc receptor binding, tumor cells were incubated with 50 ug/mL unlabeled human IgG (Jackson ImmunoResearch) for 10 min. 3-5 ug/mL m909-biotin or human IgG-biotin isotype control was added, and cells were labeled for 30 min at 4 degrees, washed with FACS buffer, and labeled with Streptavidin-APC (BD) for 25 min at 4 degrees. Cells were washed, resuspended with 7AAD, and analyzed by flow cytometry.

“Also recorded” adds a separate entry of the source.

For the molecule `CC1=C(/C=C/C(C)=C/C=C/C(C)=C/C(=O)O)C(C)(C)CCC1` [ATRA, all-trans retinoic acid], in experiment [1], the “IFNγ secretion by CAR T cells towards ATRA-treated AML cells” value is “enhances; also recorded: IFNγ production” and the “immune recognition of ATRA-treated AML cells by FRβ CAR T cells” value is recorded as “increased immune recognition by FRβ CAR T cells; also recorded: increased immune recognition by m909 CAR T cells; also recorded: enhances FRβ-mediated m909 CAR T cell recognition; also recorded: increases immune recognition”. Also, the “FRβ expression on AML cells” value in experiment [2] is on record as “enhanced the intensity of FRβ expression on the AMLs; also recorded: increases FRβ expression; also recorded: enhanced surface expression of FRβ; also recorded: induced FRβ upregulation”.
